# From patent publication US8106003B2, “Peptides and methods for the treatment of inflammatory disease” (Auckland Uniservices Limited, priority 2004, dated 2012)
# Non-standard residues stand in square brackets, D forms with d. No end group written: not given here. *: point of attachment. Biotin = O=C1N[C@H]2[C@H](CS[C@H]2CCCCC(=O)*)N1
# Assays:
# [1] = test system: α4β7-mediated adhesion of TK-1 cells to MAdCAM-1; test: Cell adhesion assay: TK-1 cells to immobilised MAdCAM-1-Fc; type: cell-based, mouse; conditions: Mn++, PMA or AlF4−-activated cells preincubated with increasing concentrations of peptide
# Protocol: (§1) Cell adhesion assays. Lab-Tek 16-well glass slides (Nunc) or flat-bottomed 96-well maxisorb plates (Nunc) were coated with purified mouse MAdCAM-1-Fc, human VCAM-1-Fc, and human ICAM-1-Fc (70 to 100 μl of 5 to 10 μg/ml), and incubated at 4° C. overnight. Slides were washed once with PBS, and blocked with FCS for 2 h at room temperature. Slides were washed with Hanks balanced salt solution (HBSS) containing 10 mM Hepes. Cells were either left unlabeled or labeled with the fluorescent dye chloromethyl fluorescein diacetate (CMFDA; Molecular Probes, Oregon), and activated by resuspension in HBSS containing 10 mM Hepes supplemented with 2 mM Ca^++ and 2 mM Mn^++. Cells were alternatively activated with 50 ng/ml PMA, or by incubating with AlF4^− (10 mM NaF and 40 µM AlCl3). They were preincubated with peptides at different concentrations for 10 min at room temperature, checked for viability by trypan blue exclusion, and then 10^6 cells added to each coated well and left to adhere for 30 min at room temperature. Non-adherent unlabeled cells in 16-well glass slides were removed by twice dipping slides gently into PBS, and adherent cells fixed in PBS containing 2% (v/v) glutaraldehyde for at least 3 h. The number of adherent cells was determined by counting the number of adherent cells in four independent fields at 100× magnification under an inverted microscope. Alternatively, non-adherent CMFDA-labeled cells in 96-well plates were removed by inverse centrifugation at 70×g for 5 min into 50 mM Tris pH 7.5, 150 mM NaCl, 2 mM MnCl2, followed by gentle washing with a pipette. The fluorescence of CMFDA-labeled adherent cells was measured using a VICTOR 1420 multilabel counter (Wallac). Unless otherwise stated, experiments were repeated in triplicate, using duplicate wells.
# [2] = test system: α4β7-mediated adhesion of TK-1 cells to VCAM-1; test: Cell adhesion assay: TK-1 cells to immobilised VCAM-1-Fc; type: cell-based, mouse
# Protocol: as §1
# [3] = test system: TK-1 T cells; test: Peptide internalization and visualization in TK-1 cells; type: cell-based, mouse; conditions: confocal microscopy; for uptake of penetratin-fused peptide into TK-1 cells: 50 μM peptide, 1 h, FITC-streptavidin
# Protocol: Peptide internalization and visualization. […] After washing with PBS, cells were resuspended into PBS/1% FCS and cytocentrifuged onto glass slides. Cytospin smears were fixed with 4% paraformaldehyde in PBS for 15 min at room temperature, washed twice with PBS and permeabilized in PBS containing 0.2% Triton X-100 for 10 min. Biotinylated peptide was detected by incubating the slides with streptavidin-FITC (Sigma, Mo.), and visualized using a Leica TCS 4D confocal laser microscope. Images were processed using Leica Scanware™ 4.2 A software and Adobe Photoshop 5.0.
# [4] = test system: adhesion of H9 cells to MAdCAM-1; test: Cell adhesion assay: H9 cells to MAdCAM-1-Fc; type: cell-based, human; conditions: Mn++ or PMA-activated H9 cells
# Protocol: as §1
# [5] = test system: adhesion of H9 cells to VCAM-1; test: Cell adhesion assay: H9 cells to VCAM-1-Fc; type: cell-based, human; conditions: Mn++ or PMA-activated H9 cells
# Protocol: as §1
# [6] = test system: kinase(s) in TK-1 cell lysate; test: Assay to test whether β7 cytoplasmic domain peptides bind a kinase(s); type: biochemical, mouse; conditions: lysates of unactivated or AlF4−-activated TK-1 cells
# Protocol: Assay to test whether β7 cytoplasmic domain peptides bind a kinase(s). TK-1 cells (3×10^6) were lysed in 1 ml of lysis buffer, and centrifuged at 12,000×g for 10 min at 4° C. Supernatants were precleared with 10 μl of Sepharose and then 10 μl of streptavidin-Sepharose. Cytoplasmic domain peptides were screened for their ability to associate with a kinase in lysates of TK-1 cells that were either left unactivated or had been activated with AlF4^−. Biotinylated peptides immobilized on 5 μl of streptavidin-Sepharose were incubated with 1 ml of lysis buffer containing 1 μl of cell lysate for 2 h at 4° C. with gentle shaking. The beads were washed thrice with ice-cold lysis buffer, once with kinase buffer, and were incubated with 30 μl kinase buffer and 0.5 to 1 μCi γ-ATP for 20 min at 30° C. Beads were washed five times, and radioactivity measured in a scintillation counter.
# [7] = test system: α4β7-mediated adhesion of TK-1 cells to RGD polymer; test: Cell adhesion assay: TK-1 cells to fibronectin-like polymer (RGD); type: cell-based, mouse; conditions: Mn++ or PMA-activated cells preincubated with increasing concentrations of peptide
Substance,inhibition of TK-1 cell adhesion to MAdCAM-1 [1],"inhibition of adhesion of CMFDA-labeled TK-1 cells to immobilized human VCAM-1-Fc ([2]; R9-fused L and D analogs of YDRREY, fluorescence readout)",internalization of R9-fused peptide by TK-1 cells ([3]; 30 min incubation),inhibition of H9 cell adhesion to MAdCAM-1 [4],inhibition of H9 cell adhesion to VCAM-1 [5],uptake of penetratin-fused peptide into TK-1 cells [3],formation of a phosphorylated complex (kinase association / phosphorylation of immobilized peptide) [6],inhibition of TK-1 cell adhesion to VCAM-1 ([2]; Mn++ or PMA-activated cells preincubated with increasing concentrations of peptide),inhibition of TK-1 cell adhesion to RGD polymer [7]
YDRREY [β7-12],inhibited,inhibit,rapidly internalized,–,–,–,–,–,–
β7-5: extreme C-terminal control peptide of β7cyt (SEQ ID NO. 23) fused to penetratin (Biotin-RQIKIWFQNRRMKWKKTTTINPRFQEADSPTL; not fully specified),–,–,–,completely ineffective,completely ineffective,taken up,did not form a phosphorylated complex,–,–
β7-7: β7cyt residues 729-735 (SEQ ID NO. 24) fused to penetratin (Biotin-RQIKIWFQNRRMKWKKRLSVEIY; not fully specified),completely ineffective,–,–,–,–,taken up,did not form a phosphorylated complex,completely ineffective,completely ineffective
"β7-10: peptide β7-12 truncated to remove tyrosine 735 (SEQ ID NO. 26), fused to r9 (Biotin-[dR][dR][dR][dR][dR][dR][dR][dR][dR]DRREY)",not able to inhibit,–,–,–,–,–,formed a phosphorylated complex,–,–
"β7-11: peptide β7-12 truncated to remove tyrosine 740 (SEQ ID NO. 27), fused to r9 (Biotin-[dR][dR][dR][dR][dR][dR][dR][dR][dR]YDRRE)",not able to inhibit,–,–,–,–,–,formed a phosphorylated complex,–,–
